Experimental findings from ChEMBL document CHEMBL1135448, “Synthesis and SAR of N-substituted dibenzazepinone derivatives as novel potent and selective alpha(V)beta(3) antagonists” (Bioorg Med Chem Lett, 2002) are described below.

“And” between values parts separate entries of the source, which are not always exact repeats. Identical values can stand only once. The source made the active and inactive calls. No cut-off for these calls is given here.

For assay [1], the target named is T1, Integrin alpha-V/beta-3 (Homo sapiens, UniProt P05106+P06756). Kind of assay: Affinity against alpha V-beta3 integrin via competitive ELISA using vitronectin as natural ligand. The assay is classed as protein-complex assay. On the technique in general: In an ELISA, binding on a coated surface is turned into a signal by an enzyme label.
For a further assay, the species on record is Homo sapiens. Kind of assay: Evaluated for primary human smooth muscle cell migration. The assay is classed as functional.
Assay [2] concerns the target Integrin alpha-5/beta-1 (Homo sapiens) (UniProt P05556+P08648). The assay can be described thus: Cell adhesion via alpha5-beta1 integrin to fibronectin at 10e-5 M (Not active). Type of assay: protein-complex assay.
Assay [3] has as its target Integrin alpha-IIb/beta-3 (Homo sapiens, UniProt P05106+P08514). The assay can be described thus: Displacement of alphaIIb-beta3 integrin from fibrinogen by ELISA. Type of assay: protein-complex assay.
Assay [4] addresses T1, Integrin alpha-V/beta-3. Kind of assay: Cell adhesion of alphaV-beta3 integrin expressed in CHO-K1 cell to osteopontin (OPN). Type of assay: cell-based.
Assay [5] addresses Integrin alpha-4/beta-1 (Homo sapiens) (UniProt P05556+P13612). The assay can be described thus: Cell adhesion of alpha4-beta1 integrin to fibronectin at 10e-5 M (Not active). Type of assay: protein-complex assay.
Assay [6] deals with T1, Integrin alpha-V/beta-3. Kind of assay: Displacement of vitronectin from alphaV-beta3 integrin in ELISA (Not active). Type of assay: protein-complex assay.
Assay [7] concerns the target T1, Integrin alpha-V/beta-3. The assay can be described thus: Adhesion of recombinant alphaV-beta3 integrin expressed in CHO-K1 to osteopontin (OPN). Type of assay: cell-based.
The subject of the next assay is Caco-2. Kind of assay: Apparent permeability constant (Papp) was evaluated for Caco-2 model permeation. The note with it: Homo sapiens. The assay is classed as functional, cell-based. (Caco-2 monolayers are a common model of the intestinal barrier.)

The IC50 is the midpoint of a concentration-inhibition curve. Regarding `O=C(O)CC1c2ccccc2C(=O)N(CC(=O)NCc2ccc(-c3nc4ccccc4[nH]3)cc2)c2ccccc21` (centres undefined), on Integrin alpha-V/beta-3 [1], the IC50 worked out at 74 nM. Usually Inhibition stands for the percentage by which the read-out fell short of the control. In the case of `O=C(O)CC1c2ccccc2C(=O)N(CC(=O)NCc2ccc(Nc3nc4ccccc4[nH]3)cc2)c2ccccc21` (centres undefined), the Inhibition in the assay filed under Homo sapiens was 67%. For the same compound, the inhibition result in [2] and in assay [5] was “inactive” in each case. The IC50 in [3] was > 100000 nM; against Integrin alpha-V/beta-3 [4] it was 100 nM; on Integrin alpha-V/beta-3 [1] it was 7 nM and 7.3 nM. On to `O=C(O)CC1c2ccccc2C(=O)N(CCOCc2ccc(NC(=O)NCc3ccccc3)cc2)c2ccccc21` (centres undefined), for which, at Integrin alpha-V/beta-3 [6], the half-inhibitory concentration (IC50) result is reported as “Not Active”. `O=C(O)CC1c2ccccc2C(=O)N(CC(=O)NCc2nc3ccccc3[nH]2)c2ccccc21` (centres undefined) yielded an IC50 on Integrin alpha-V/beta-3 [1] of 1000 nM. Take `O=C(O)CC1c2ccccc2C(=O)N(CC(=O)NCc2ccc(OC(=O)NCc3ccccc3)cc2)c2ccccc21` (centres undefined): on Integrin alpha-V/beta-3 [1], the IC50 is 10000 nM. Regarding `O=C(O)CC1c2ccccc2C(=O)N(CC(=O)NCc2cc(-c3nc4ncccc4[nH]3)cs2)c2ccccc21` (centres undefined), the IC50 on Integrin alpha-V/beta-3 [1] is 500 nM. Same read-out and setting: the figure for `O=C(O)CC1c2ccccc2C(=O)N(CC(=O)NCCCNc2ccccn2)c2ccccc21` (centres undefined) is 1000 nM; for `O=C(O)CC1c2ccccc2C(=O)N(CC(=O)NCc2cc(CNc3ccccn3)cs2)c2ccccc21` (centres undefined) it is 220 nM; for `O=C(O)CC1c2ccccc2C(=O)N(CC(=O)NCc2ccc(NC(=O)OCc3ccccc3)cc2)c2ccccc21` (centres undefined) it is 10000 nM. Same read-out and setting: then `O=C(O)CC1c2ccccc2C(=O)N(CC(=O)NCc2ccc(-c3nc4cc(Cl)ccc4[nH]3)cc2)c2ccccc21` (centres undefined), with 620 nM. On to `O=C(O)CC1c2ccccc2C(=O)N(CC(=O)NCc2ccc(-c3nc4ccccc4[nH]3)nc2)c2ccccc21` (centres undefined), for which the IC50 at Integrin alpha-V/beta-3 [1] was 200 nM. With `O=C(O)CC1c2ccccc2C(=O)N(CCNCc2ccc(NC(=O)NCc3ccccc3)cc2)c2ccccc21` (centres undefined), at Integrin alpha-V/beta-3 [6], the IC50 result is given as “Not Active”. As to `N=C(N)c1csc(CNC(=O)CN2C(=O)c3ccccc3C(CC(=O)O)c3ccccc32)c1` (centres undefined), the IC50 at Integrin alpha-V/beta-3 [1] was 1000 nM. As for `Cc1cc2nc(-c3ccc(CNC(=O)CN4C(=O)c5ccccc5C(CC(=O)O)c5ccccc54)cc3)[nH]c2cc1C` (centres undefined), at Integrin alpha-V/beta-3 [1], the IC50 worked out at 220 nM. On the same count and under the same terms, the figure for `O=C(O)CC1c2ccccc2C(=O)N(CC(=O)NCc2nc(-c3nc4ccccc4[nH]3)cs2)c2ccccc21` (centres undefined) is 1000 nM. `O=C(O)CC1c2ccccc2C(=O)N(CC(=O)NCCCCNc2nc3ccccc3[nH]2)c2ccccc21` (centres undefined): on Integrin alpha-V/beta-3 [1], the IC50 amounted to 14.9 nM.

For `O=C(O)CC1c2ccccc2C(=O)N(CC(=O)Nc2ccc(-c3nc4ccccc4[nH]3)cc2)c2ccccc21` (centres undefined), the IC50 on Integrin alpha-V/beta-3 [1] is 5000 nM. Same read-out and setting: the figure for `O=C(O)CC1c2ccccc2C(=O)N(CC(=O)NCCc2ccc(-c3nc4ccccc4[nH]3)cc2)c2ccccc21` (centres undefined) is 380 nM. On to `O=C(O)CC1c2ccccc2C(=O)N(CC(=O)NCc2ccc(NC(=O)CCc3ccccc3)cc2)c2ccccc21` (centres undefined), for which, at Integrin alpha-V/beta-3 [6], the IC50 entry is “Not Active”. The compound `O=C(O)CC1c2ccccc2C(=O)N(CC(=O)NCCCCCNc2nc3ccccc3[nH]2)c2ccccc21` (centres undefined) came in with an IC50 at Integrin alpha-V/beta-3 [1] of 12.9 nM.

The compound `O=C(O)CC1c2ccccc2C(=O)N(CC(=O)NCc2ccc(Nc3ccccn3)cc2)c2ccccc21` (centres undefined) gave an IC50 at Integrin alpha-V/beta-3 [1] of 5000 nM. Same read-out and setting: then `O=C(O)CC1c2ccccc2C(=O)N(CC(=O)NCc2ccc(NC(=O)NCc3ccccc3)cc2)c2ccccc21` (centres undefined), with 23 nM. As usually defined, the Papp is the rate of passage across a membrane or cell layer, normalised by area and donor concentration. With `O=C(O)CC1c2ccccc2C(=O)N(CC(=O)NC[C@H]2CC[C@H](Nc3nc4ccccc4[nH]3)CC2)c2ccccc21` (some centres undefined), the Inhibition in the assay filed under Homo sapiens came out at 100%. The inhibition entry in assay [2] and in [5] was “inactive” throughout. Moreover, the IC50 is > 100000 nM in assay [3], 40 nM on Integrin alpha-V/beta-3 [7] and 1.6 nM on Integrin alpha-V/beta-3 [1]. In the assay on Caco-2, the Papp amounted to 2.7 ×10⁻⁶ cm/s. `NC(N)=Nc1ccc(CNC(=O)CN2C(=O)c3ccccc3C(CC(=O)O)c3ccccc32)cc1` (centres undefined) gave an IC50 on Integrin alpha-V/beta-3 [1] of 84 nM.

The compound `O=C(O)CC1c2ccccc2C(=O)N(CC(=O)NCc2cc(-c3nc4ccccc4[nH]3)cs2)c2ccccc21` (centres undefined) came in with an IC50 at Integrin alpha-V/beta-3 [1] of 100 nM. In the case of `O=C(O)CC1c2ccccc2C(=O)N(CCCCc2ccc(NC(=O)NCc3ccccc3)cc2)c2ccccc21` (centres undefined), the IC50 at Integrin alpha-V/beta-3 [1] stood at 10000 nM. Same read-out and setting: the figure for `O=C(O)CC1c2ccccc2C(=O)N(CC(=O)NCc2cccc(-c3nc4ccccc4[nH]3)c2)c2ccccc21` (centres undefined) is 10000 nM; for `O=C(O)CC1c2ccccc2C(=O)N(CC(=O)NCc2ccc(-c3nc4ccccc4[nH]3)s2)c2ccccc21` (centres undefined) it is 500 nM.
